Reference: patent US20250120952A1, “17-Beta-Hydroxysteroid Dehydrogenase Type 13 Inhibitors And Methods Of Use Thereof” (ENANTA PHARMACEUTICALS, INC., priority 2023, published 2025)

Tests used:
HSD17B13 = molecular target: T1, HSD17B13 (Homo sapiens, UniProt Q7Z5P4); test: HSD17B13 enzymatic activity in H441 cells (estradiol conversion to estrone, rapid fire mass spectrometry); format: cell-based; conditions: H441 (high HSD17B13), inhibitor 0.3 uM, 1 uM, 3 uM, 24 hours; effect only in H441, not in A549 (low HSD17B13) (FIG. 10)
T1 construct: Human lung cancer cell lines with high (H441) or low (A549) expression of HSD17B13, as confirmed by western blot; host or cells: H441 human lung cancer cell line
T1 sequence (Q7Z5P4 20-300): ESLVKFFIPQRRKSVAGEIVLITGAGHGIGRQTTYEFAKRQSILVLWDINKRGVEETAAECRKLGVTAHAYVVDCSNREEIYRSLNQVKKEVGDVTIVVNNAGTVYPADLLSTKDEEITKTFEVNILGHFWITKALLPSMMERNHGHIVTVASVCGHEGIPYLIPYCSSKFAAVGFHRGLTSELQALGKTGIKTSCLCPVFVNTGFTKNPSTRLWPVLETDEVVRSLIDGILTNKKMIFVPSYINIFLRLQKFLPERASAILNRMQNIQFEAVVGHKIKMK
Method: (§1) Human lung cancer cell lines with high (H441) or low (A549) expression of HSD17B13, as confirmed by western blot, were acquired from ATCC and maintained according to manufacturer's instructions. Cells were seeded at a confluency of 2e5 cells/well (A549) or 4e5 cells/well (H441) in a 6-well format. Once cells were 70% confluent, media was removed and replenished with starvation media for 24 hours. Afterward starvation media was removed and replenished with treatment media for 24 hours. Compound 348 and Compound 812 were used as HSD17B13 inhibitors. For gene expression analysis, treatment media consisted of +/−TGFB1 (10 ng/mL) and +/−HSD17B13 inhibitor (3 uM). For HSD17B13 enzymatic activity, treatment media consisted of +/−d2-Estradiol (Cayman Chemicals) and +/−HSD17B13 inhibitor (0.3 uM, 1 uM, 3 uM); supernatants were collected to measure estradiol conversion to estrone by rapid fire mass spectrometry.

H441 cells = test: Collagen / COL1A1 mRNA in H441 cells; format: cell-based, human; conditions: H441 (high HSD17B13), +/-TGFB1 10 ng/mL, inhibitor 3 uM, 24 hours; effect only in H441, not in A549 (low HSD17B13) (FIG. 11)
Method: as §1

## COc1cc(C(=O)O)ccc1NS(=O)(=O)c1csc(-c2ccc(C3CCC(C(F)(F)F)CC3)cc2)n1 (centres unmarked) [Compound 348]
HSD17B13
  enzymatic activity (d2-estradiol conversion to estrone): decreased
H441 cells
  COL1A1 (Collagen): decreased
